Entries after “also recorded” stand apart in the source; their conditions may differ.
Columns and labels:
Type in all cases: physicochemical
[1] = Hygroscopicity and humidity stability by DVS
Experimental: DVS data in the present disclosure were measured via an SMS (Surface Measurement Systems Ltd.) intrinsic DVS instrument. The instrument control software is DVS-Intrinsic control software. Typical Parameters for DVS test are as follows: • Temperature: 25° C. • Gas and flow rate: N2, 200 mL/min • RH range: 0% RH to 95% RH
DVS analyzer was applied to evaluate the hygroscopicity of Form CSI with an appropriate amount. The mass changes at each relative humidity were recorded in a cycle of 0% RH-95%RH-0%RH. The crystalline form of the sample before and after DVS were tested by XRPD.

[2] = Stability under mechanical force (ball milling); details: milled 5 minutes at 500 rpm, XRPD
Experimental: The crystalline form of the sample before and after ball milling were tested by XRPD, and the XRPD overlay is depicted in FIG. 6.

[3] = Physical and chemical stability on storage (XRPD, HPLC)
Experimental: Chemical purity and crystalline form were tested by HPLC and XRPD.

[4] = 25° C./60% RH, 9 months, sealed container
[5] = 40° C./75% RH, 9 months, sealed container
[6] = 60° C./75% RH, 3 months, sealed container

Mass increase (weight gain) at 80% RH ([1]; DVS, 25° C., equilibrium at 80% RH): 0.18%
Crystalline form after humidity cycle ([1]; cycle of 0% RH-95%RH-0%RH, XRPD): remains unchanged
Time stable on storage (no change of crystalline form) ([3]; 25° C./60% RH): at least 9 months
Purity [3, 4]: 99.98%
Solid form [3, 4]: Form CSI
Time stable on storage (no change of crystalline form) ([3]; 40° C./75% RH): at least 9 months
Purity [3, 5]: 99.99%
Solid form [3, 5]: Form CSI
Time stable on storage (no change of crystalline form) ([3]; 60° C./75% RH): at least 3 months
Purity [3, 6]: 99.98%
Solid form [3, 6]: Form CSI
Purity ([3]; Initial): 99.98%
Solid form ([3]; Initial): Form CSI
SMILES: CCc1nc(-c2ccc3c(c2)CC[C@H]3NC(=O)c2cnn(C)c2)no1.CCc1nc(-c2ccc3c(c2)CC[C@H]3NC(=O)c2cnn(C)c2)no1.O=C(O)C(O)C(O)C(=O)O [Form CSI]
Crystalline form after ball milling [2]: doesn't change; also recorded: no form change
